Molecular target: T1, NLK (Homo sapiens, UniProt Q9UBE8)
T1 sequence (Q9UBE8 1-527): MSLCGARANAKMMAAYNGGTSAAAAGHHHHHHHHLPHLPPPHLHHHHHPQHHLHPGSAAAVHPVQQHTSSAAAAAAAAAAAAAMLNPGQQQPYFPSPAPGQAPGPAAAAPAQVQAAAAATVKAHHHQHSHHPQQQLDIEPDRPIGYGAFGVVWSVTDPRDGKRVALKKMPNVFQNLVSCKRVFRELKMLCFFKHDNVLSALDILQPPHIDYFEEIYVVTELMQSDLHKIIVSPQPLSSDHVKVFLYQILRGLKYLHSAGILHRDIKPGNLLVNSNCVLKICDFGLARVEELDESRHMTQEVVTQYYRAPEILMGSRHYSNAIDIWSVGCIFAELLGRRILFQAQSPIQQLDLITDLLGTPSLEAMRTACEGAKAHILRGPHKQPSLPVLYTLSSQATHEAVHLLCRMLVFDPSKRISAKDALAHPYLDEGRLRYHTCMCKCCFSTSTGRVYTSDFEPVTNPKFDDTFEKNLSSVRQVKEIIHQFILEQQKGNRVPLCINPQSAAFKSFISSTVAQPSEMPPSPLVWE
Test: Kinase assay of NLK immunopurified from treated differentiating human progenitors
Assay type: cell-based
Design: 5000 cells per treatment were lysed and immunopurified NLK was subjected to in vitro kinase assay; endogenous in cells; host or cells: human cord blood CD34+ HSPCs transduced with shLuc / shRPS19 / shRPL11, differentiating in erythroid medium
Conditions: for reduction in kinase activity of NLK immuno-precipitated from treated cultures: RPS19-insufficient human progenitors
Method: FIG. 7. SD208 increases erythroid expansion in human model of DBA through inhibition of NLK and not TGFβ. (a) Differentiating cord blood CD34+ progenitors were transduced with shRNA against luciferase or RPS19 and treated with inhibitors at working concentrations for TGFβ inhibition every three days. Cells were counted and CD235+ erythroid cells were assessed by flow cytometry after 15 days. (b) Prior to flow cytometry, 5000 cells per group were taken from differentiating cultures for NLK kinase assay. (c) CD34+ progenitors were transduced with shRNA against luciferase or RPS19 and non-targeting or siRNA against NLK. After sorting, samples were split into two groups and either treated with vehicle or SD208 every three days. After 15 days cells were counted and subject to flow cytometry to compare the expansion of maturing CD235+ erythroid (left panel) and CD11b+ myeloid cells (right panel). (d) Cord Blood CD34+ progenitors were transduced with shRNA against luciferase (left panel) or RPS19 (right panel) differentiated in erythroid media for 15 days alone, or in the presence of SB525334 or SD208 at 5 μM. Cells were counted and CD235+ erythroid (D—upper) and CD11b+ myeloid cell (D—lower) percentages were determined by flow cytometry. The number of erythroid or myeloid cells is expressed as a percentage of the number of that lineage with no cytokine or drug treatment.
FIG. 8. NLK inhibition increases expansion of erythroid progenitors from human and murine models of DBA. Human cord blood CD34+ progenitors were transduced with lentivirus co-expressing GFP with shRNA against luciferase (shLuc), RPS19 (shRPS19) or RPL11 (shRPL11). After 36 hours cells GFP+ cells were differentiated in erythroid media in the presence or absence of 5 μM SD208 for 15 days. Cells were counted and assessed for cell surface expression of CD235. (a) The percentage of CD235+ cells was multiplied by the cell count and values were compared as a percentage of untreated controls. (b) Normalizing values relative to untreated RPS19-insufficiency progenitors facilitates direct comparison of erythropoiesis between untreated and SD208-treated cultures. (c) Approximately 3000 cells were removed from differentiating treatments at day 6 and NLK activity was assessed. Values were normalized to reflect a fold induction relative to untreated controls. (d) Lin-Kit+ hematopoietic progenitors were obtained from three mouse embryos expressing tetracycline-inducible shRNA against RPS19 at day E14.5 or three untreated mice, and thee mature RPL11^+/+ or three mature RPL11^+/lox mice treated with tamoxifen for eight weeks. Cells were grown in the presence or absence of doxycycline and/or SD208 for eight days prior to counting and assessing for ter119 surface expression. Values were expressed as a percentage relative to untreated controls (e) and directly comparing the effect of SD208 on erythropoiesis in ribosomal-insufficiency by expressing values relative to untreated ribosome-insufficient cultures (f). At day 5 approximately 3000 cells were assayed for NLK kinase assay (g). CD34+ HSPCs were isolated from three healthy control and three DBA patient mononuclear bone marrow aspirates by magnetic bead sorting and differentiated in the presence or absence of SD208 for 14 days. After counting the total cell population, the ratio of CD235+ erythroblasts was determined by flow cytometry and number of CD235+ erythroblasts calculated. This was expressed as a percentage of the average number of erythroid cells present in untreated healthy controls. (h) The direct effect of SD208 on erythroid expansion in DBA patient samples was calculated following normalization of untreated DBA patient samples as 1-fold, (i) At day five, 3000 cells from each of the differentiating cultures was analyzed for NLK activity by kinase assay and are expressed as a fold induction relative to untreated healthy controls. […]

[1] = RPS19-insufficient progenitors, 50 mM metformin, 5 days

Cc1cccc(-c2nn3c(c2-c2ccnc4ccc(C(N)=O)cc24)CCC3)n1 [Galunisertib]
reduction in kinase activity of NLK immuno-precipitated from treated cultures: 61.2%

NC(=O)c1ccc(-c2nc(-c3ccc4c(c3)OCO4)c(-c3ccccn3)[nH]2)cc1 [SB431542]
reduction in kinase activity of NLK immuno-precipitated from treated cultures: 73.6%

Fc1ccc(Cl)cc1-c1nc(Nc2ccncc2)c2nccnc2n1 [SD208]
NLK activity, NLK phosphorylation, fold of untreated controls (RPL11-insufficiency with SD208 5 μM, 3.0-fold without): 1.2 fold
NLK activity, Myb phosphorylation, fold of untreated controls (RPL11-insufficiency with SD208 5 μM, 4.6-fold without): 1.38 fold
NLK activity, raptor phosphorylation, fold of untreated controls (RPL11-insufficiency with SD208 5 μM, 7.3-fold without): 1.6 fold
NLK activity, NLK phosphorylation, fold of untreated controls (RPS19-insufficiency with SD208 5 μM, 3.5-fold without): 1.2 fold
NLK activity, Myb phosphorylation, fold of untreated controls (RPS19-insufficiency with SD208 5 μM, 5.2-fold without): 1.5 fold
NLK activity, raptor phosphorylation, fold of untreated controls (RPS19-insufficiency with SD208 5 μM, 8.4-fold without): 1.7 fold
reduction in kinase activity of NLK immuno-precipitated from treated cultures: 92.5%

CN(C)C(=N)N=C(N)N [metformin]
reduction of phosphorylation of NLK [1]: 48.5%
reduction of phosphorylation of c-Myb [1]: 39.8%
reduction of phosphorylation of raptor [1]: 40.2%

— patent US12403132B2, “Methods of treating bone marrow failure syndromes and compositions for use in the same” (The Board of Trustees of the Leland Stanford Junior …, priority 2020, dated 2025)
